Common to all, as to type: cell-based
The subject of one assay is CNR1. The assay can be described thus: Gene expression custom microarray, human skin fibroblasts (Example 1): CNR1. An excerpt: (§1) Cell cultures: A human skin fibroblast cell culture (or cultures) was obtained through the Coriell Cell Repository from the National Institute on Aging Cell Repository (Camden, N.J.), or Promocell GmbH (Heidelberg, Germany). The initial culture was selected from the following cell lines: AG13066, AG11557, AG11796 or GM03651E. The cell lines were derived from donors as follows:
(§2) Experimental phase: When the appropriate quantity of cells had been grown, they were detached as described above, but at the final step were seeded into each well of one or more 6 well dishes. Each well received 2 ml of the cell suspension so they were seeded equally. The dishes were returned to the incubator until 85-95% confluency was reached.
(§3) It is at this stage that all wells were rinsed in PBS after aspirating the growth media. The compound(s) to be tested were previously mixed into a suitable solvent (e.g., DMSO or ethanol) that can be diluted to the desired concentration of test compound (10 μl) in the culture wells without exceeding maximum solvent concentrations and adversely effecting cell viability, and mixed with basal media. NOTE: Standard maximum levels of solvent are 0.1% for DMSO and 0.5% for ETOH. The concentration of each test compound is found in Tables 1 & 2.
(§4) Every 2 wells on the 6 well plate served as a biological replicate for the purposes of RNA isolation and genetic expression evaluations making each 6 well dish an n=3 for the test compound(s) contained in the media. Negative control plates (no test compound(s) and only basal media) were also generated. The plates were returned to the incubator for 24 hrs.
(§5) At the end of the 24 hr time period, the plates were removed from the incubator, the test media aspirated, and the cells rinsed with PBS. RNA isolation is performed using the BioRad Aurum Total RNA Mini Kit (Hercules, Calif.) per manufacturer's protocol; which is described, in brief, below: • Add 350 μl of lysis buffer to each well. Pipet multiple times to ensure thorough lysis. Add lysed cells to the collection tube. • Add 350 μl of 70% ETOH to the collection tube and mix thoroughly. • Pipet the generated lysate onto the spin column placed in a new 2 ml tube. Centrifuge for 30 sec between 8,000 and 10,000 g. • Place the spin column containing the now bound RNA, in a new 2 ml tube. Add 700 μl of low stringency wash solution to the spin column. Centrifuge for 30 sec between 8,000 and 10,000 g. Discard the flow through and replace spin column. • Add 80 μl of DNase I dilution to the spin column and incubate at room temperature for 15 minutes. • Add 700 μl of high stringency wash solution to the column and centrifuge for 30 sec between 8,000 and 10,000 g. Discard flow through. • Add 700 μl of low stringency wash solution to the column and centrifuge for 60 sec between 8,000 and 10,000 g. Discard flow through. • Centrifuge for 2 minutes to remove residual wash solution. • Transfer spin column to new 1.5 ml collection tube and add 80 μl of elution solution to the column. Allow 1 minute for saturation of the membrane and then centrifuge for 2 minutes to complete the RNA elution. • Quantify the quantity of RNA and store at −20 C° until use (no more than 1 month)
(§6) The genes tested were: • Cannabinoid receptor 1 (CB1(CNR1)) • Cannabinoid receptor 2 (CB2 (CNR2)) • Fatty acid amide hydrolase (FAAH) • Monoacylglycerol lipase (MGLL, i.e., MAGL) • Peroxisome proliferator-activated receptor gamma (PPARG) • Nuclear factor kappa-light-chain-enhancer of activated B cells (NFκβ) • Interleukin 1 Alpha (IL1alpha) • Cyclooxygenase 1 (PTGS1, i.e., COX1) • Transient receptor potential cation channel subfamily A member 1 (TRPA1) • Transient receptor potential cation channel subfamily V member 1 (TRPV1) • Transient receptor potential cation channel subfamily M member 8 (TRPM8) • Hemoglobin Subunit Beta (HBB) REFERENCE GENE • Ribosomal Protein L13a (RPL13A) REFERENCE GENE […]

For the next assay, the system named is NFKB1. The assay can be described thus: Gene expression custom microarray, human skin fibroblasts (Example 1): NFKB1. The following applies: human skin fibroblasts, 10 uM, 24 hr.
Text: as §1, §2
It is at this stage that all wells were rinsed in PBS after aspirating the growth media. The compound(s) to be tested were previously mixed into a suitable solvent (e.g., DMSO or ethanol) that can be diluted to the desired concentration of test compound (10 μl) in the culture wells without exceeding maximum solvent concentrations and adversely effecting cell viability, and mixed with basal media. NOTE: Standard maximum levels of solvent are 0.1% for DMSO and 0.5% for ETOH.
as §4, §5
The genes tested were: • Cannabinoid receptor 1 (CB1(CNR1)) • Cannabinoid receptor 2 (CB2 (CNR2)) • Fatty acid amide hydrolase (FAAH) • Monoacylglycerol lipase (MGLL, i.e., MAGL) • Peroxisome proliferator-activated receptor gamma (PPARG) • Nuclear factor kappa-light-chain-enhancer of activated B cells (NFκβ) • Interleukin 1 Alpha (IL1alpha) • Cyclooxygenase 1 (PTGS1, i.e., COX1) • Transient receptor potential cation channel subfamily A member 1 (TRPA1) • Transient receptor potential cation channel subfamily V member 1 (TRPV1) • Transient receptor potential cation channel subfamily M member 8 (TRPM8) • Hemoglobin Subunit Beta (HBB) REFERENCE GENE • Ribosomal Protein L13a (RPL13A) REFERENCE GENE

Another assay relates to FAAH. The assay can be described thus: Gene expression custom microarray, human skin fibroblasts (Example 1): FAAH.
Text: as §1, §2, §3, §4, §5, §6

A further assay deals with MAGL. Briefly: Gene expression custom microarray, human skin fibroblasts (Example 1): MAGL.
Text: as §1, §2, §3, §4, §5, §6

The subject of another assay is PTGS1. Briefly: Gene expression custom microarray, human skin fibroblasts (Example 1): PTGS1. Particulars: human skin fibroblasts, 10 uM, 24 hr.
Text: as §1, §2, §3, §4, §5, §6

[1] abbreviates: human skin fibroblasts, 10 uM, 24 hr.

Consider `CCCCCCCCCCCCCCCC(=O)NCCO` [N-palmitoylethanolamide], for which the “CNR1↑ gene expression, fold increase or decrease vs untreated cells” value in the assay on CNR1 (setting [1]) was determined as 5.9 fold. Besides, the “NFKB1↓ gene expression, fold increase or decrease vs untreated cells” value in the assay on NFKB1 was 1.5 fold. Moreover, in the assay on FAAH (setting [1]), the “FAAH↓ gene expression, fold increase or decrease vs untreated cells” value is on record as −1.1 fold. For the same compound, the “MAGL↓ gene expression, fold increase or decrease vs untreated cells” value in the assay with MAGL (setting [1]) is 2.8 fold. In the assay on PTGS1, the “PTGS1↓ gene expression, fold increase or decrease vs untreated cells” value is reported as 1.1 fold.

On to `C=C(C)[C@@H]1CCC(C)=C[C@H]1c1c(O)cc(CCCCC)cc1O` [CBD, cannabidiol, reference compound], for which the fold induction at 10 µM in the assay with CNR1 (Homo sapiens, Skin fibroblast, 24 h, read-out: CNR1↑ gene expression, fold increase or decrease vs untreated cells) amounted to 1.5; in the assay on NFKB1 (Skin fibroblast, read-out: NFKB1↓ gene expression, fold increase or decrease vs untreated cells), 2.3; in the assay with FAAH (Homo sapiens, Skin fibroblast, 24 h, read-out: FAAH↓ gene expression, fold increase or decrease vs untreated cells), 2.2; in the assay on MAGL (Homo sapiens, Skin fibroblast, 24 h, read-out: MAGL↓ gene expression, fold increase or decrease vs untreated cells) it was 1.8; with PTGS1 (Skin fibroblast, read-out: PTGS1↓ gene expression, fold increase or decrease vs untreated cells), 4.2.
